#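 A five-concentration, 48-hour dose response in 96-well plates underlies each endpoint, interpolated linearly between surrounding concentrations. Abbreviation: GI50, concentration required for 50% inhibition of growth. Definition used: TGI = concentration required for complete inhibition of growth.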
# Key:
# Assay in all cases: NCI tumour cell line growth inhibition, 48 h
# MDA-MB-231 breast = test system: MDA-MB-231 breast
# NCI-H226 lung = test system: NCI-H226 lung
# UACC-257 melanoma = test system: UACC-257 melanoma
# SF-539 CNS = test system: SF-539 CNS
# MCF7 breast = test system: MCF7 breast
# A549 NSCLC = test system: A549 NSCLC
# HCT-116 colon = test system: HCT-116 colon
# SF-295 CNS = test system: SF-295 CNS
# HOP-62 NSCLC = test system: HOP-62 NSCLC
# EKVX NSCLC = test system: EKVX NSCLC
# HCT-15 colon = test system: HCT-15 colon
# HCC-2998 colon = test system: HCC-2998 colon
# T-47D breast = test system: T-47D breast
# SNB-75 CNS = test system: SNB-75 CNS
# SW-620 colon = test system: SW-620 colon
# M14 melanoma = test system: M14 melanoma
# SK-MEL-28 melanoma = test system: SK-MEL-28 melanoma
# TK-10 renal = test system: TK-10 renal
# K-562 leukemia = test system: K-562 leukemia
# ACHN renal = test system: ACHN renal
# SK-MEL-5 melanoma = test system: SK-MEL-5 melanoma
# 786-0 renal = test system: 786-0 renal
# SNB-19 CNS = test system: SNB-19 CNS
# BT-549 breast = test system: BT-549 breast
# OVCAR-4 ovarian = test system: OVCAR-4 ovarian
# HL-60(TB) leukemia = test system: HL-60(TB) leukemia
# MDA-MB-435 = test system: MDA-MB-435
# UO-31 renal = test system: UO-31 renal
# COLO 205 colon = test system: COLO 205 colon
# SR leukemia = test system: SR leukemia
# NCI/ADR-RES ovarian = test system: NCI/ADR-RES ovarian
# A498 renal = test system: A498 renal
# RXF 393 renal = test system: RXF 393 renal
# MALME-3M melanoma = test system: MALME-3M melanoma
# SF-268 CNS = test system: SF-268 CNS
# SK-OV-3 ovarian = test system: SK-OV-3 ovarian
# OVCAR-3 ovarian = test system: OVCAR-3 ovarian
# UACC-62 melanoma = test system: UACC-62 melanoma
# NCI-H23 lung = test system: NCI-H23 lung
# LOX IMVI melanoma = test system: LOX IMVI melanoma
# NCI-H522 lung = test system: NCI-H522 lung
# IGROV1 ovarian = test system: IGROV1 ovarian
# SN12C renal = test system: SN12C renal
# OVCAR-8 ovarian = test system: OVCAR-8 ovarian
# OVCAR-5 ovarian = test system: OVCAR-5 ovarian
# CCRF-CEM leukemia = test system: CCRF-CEM leukemia
# U251 CNS = test system: U251 CNS
# HOP-92 NSCLC = test system: HOP-92 NSCLC
# NCI-H460 lung = test system: NCI-H460 lung
# DU-145 prostate = test system: DU-145 prostate
# PC-3 prostate = test system: PC-3 prostate
# KM12 colon = test system: KM12 colon
# RPMI-8226 leukemia = test system: RPMI-8226 leukemia
# MOLT-4 leukemia = test system: MOLT-4 leukemia
# HT29 colon = test system: HT29 colon
# HS 578T breast = test system: HS 578T breast
# SK-MEL-2 melanoma = test system: SK-MEL-2 melanoma
# CAKI-1 renal = test system: CAKI-1 renal
structure (smiles),measurement,setting,value
Cc1ccc(C(SCC(N)C(=O)O)(c2ccccc2)c2ccc(C)cc2)cc1 (stereo unspecified),GI50,MDA-MB-231 breast,0.468 µM
same,TGI,MDA-MB-231 breast,16.1 µM
same,GI50,NCI-H226 lung,3.02 µM
same,TGI,NCI-H226 lung,25.8 µM
same,GI50,UACC-257 melanoma,2.13 µM
same,TGI,UACC-257 melanoma,> 56.8 µM
same,GI50,SF-539 CNS,0.129 µM
same,TGI,SF-539 CNS,2.47 µM
same,GI50,MCF7 breast,0.0524 µM
same,TGI,MCF7 breast,15.4 µM
same,GI50,A549 NSCLC,0.466 µM
same,TGI,A549 NSCLC,45.6 µM
same,GI50,HCT-116 colon,0.0449 µM
same,TGI,HCT-116 colon,7.06 µM
same,GI50,SF-295 CNS,0.167 µM
same,TGI,SF-295 CNS,2.15 µM
same,GI50,HOP-62 NSCLC,2 µM
same,TGI,HOP-62 NSCLC,18.9 µM
same,GI50,EKVX NSCLC,0.357 µM
same,TGI,EKVX NSCLC,> 46.8 µM
same,GI50,HCT-15 colon,0.367 µM
same,TGI,HCT-15 colon,23.9 µM
same,GI50,HCC-2998 colon,0.236 µM
same,TGI,HCC-2998 colon,2.77 µM
same,GI50,T-47D breast,0.333 µM
same,TGI,T-47D breast,16.9 µM
same,GI50,SNB-75 CNS,0.334 µM
same,TGI,SNB-75 CNS,17.7 µM
same,GI50,SW-620 colon,0.153 µM
same,TGI,SW-620 colon,14.8 µM
same,GI50,M14 melanoma,0.0316 µM
same,TGI,M14 melanoma,0.147 µM
same,GI50,SK-MEL-28 melanoma,2.09 µM
same,TGI,SK-MEL-28 melanoma,23.7 µM
same,GI50,TK-10 renal,11.2 µM
same,TGI,TK-10 renal,30.9 µM
same,GI50,K-562 leukemia,0.266 µM
same,TGI,K-562 leukemia,> 35.2 µM
same,GI50,ACHN renal,1.78 µM
same,TGI,ACHN renal,36.3 µM
same,GI50,SK-MEL-5 melanoma,0.0465 µM
same,TGI,SK-MEL-5 melanoma,13.8 µM
same,GI50,786-0 renal,2.21 µM
same,TGI,786-0 renal,24.4 µM
same,GI50,SNB-19 CNS,0.476 µM
same,TGI,SNB-19 CNS,39.3 µM
same,GI50,BT-549 breast,0.247 µM
same,TGI,BT-549 breast,21.9 µM
same,GI50,OVCAR-4 ovarian,13.4 µM
same,TGI,OVCAR-4 ovarian,72.7 µM
same,GI50,HL-60(TB) leukemia,0.235 µM
same,TGI,HL-60(TB) leukemia,0.588 µM
same,GI50,MDA-MB-435,0.0323 µM
same,TGI,MDA-MB-435,0.14 µM
same,GI50,UO-31 renal,7.96 µM
same,TGI,UO-31 renal,> 55 µM
same,GI50,COLO 205 colon,0.241 µM
same,TGI,COLO 205 colon,0.732 µM
same,GI50,SR leukemia,0.204 µM
same,TGI,SR leukemia,4.33 µM
same,GI50,NCI/ADR-RES ovarian,1.14 µM
same,TGI,NCI/ADR-RES ovarian,11.6 µM
same,GI50,A498 renal,0.225 µM
same,TGI,A498 renal,4.5 µM
same,GI50,RXF 393 renal,0.0957 µM
same,TGI,RXF 393 renal,3.52 µM
same,GI50,MALME-3M melanoma,2.57 µM
same,TGI,MALME-3M melanoma,22.1 µM
same,GI50,SF-268 CNS,0.257 µM
same,TGI,SF-268 CNS,23.9 µM
same,GI50,SK-OV-3 ovarian,0.0811 µM
same,TGI,SK-OV-3 ovarian,19.6 µM
same,GI50,OVCAR-3 ovarian,0.192 µM
same,TGI,OVCAR-3 ovarian,2.64 µM
same,GI50,UACC-62 melanoma,0.119 µM
same,TGI,UACC-62 melanoma,17.3 µM
same,GI50,NCI-H23 lung,0.423 µM
same,TGI,NCI-H23 lung,23.7 µM
same,GI50,LOX IMVI melanoma,0.602 µM
same,TGI,LOX IMVI melanoma,21.5 µM
same,GI50,NCI-H522 lung,0.132 µM
same,TGI,NCI-H522 lung,2.58 µM
same,GI50,IGROV1 ovarian,0.526 µM
same,TGI,IGROV1 ovarian,26.1 µM
same,GI50,SN12C renal,2.33 µM
same,TGI,SN12C renal,23.8 µM
same,GI50,OVCAR-8 ovarian,0.433 µM
same,TGI,OVCAR-8 ovarian,44.2 µM
same,GI50,OVCAR-5 ovarian,1.11 µM
same,TGI,OVCAR-5 ovarian,24.4 µM
same,GI50,CCRF-CEM leukemia,0.341 µM
same,TGI,CCRF-CEM leukemia,> 75.7 µM
same,GI50,U251 CNS,0.101 µM
same,TGI,U251 CNS,15.5 µM
same,GI50,HOP-92 NSCLC,1.19 µM
same,TGI,HOP-92 NSCLC,22.4 µM
same,GI50,NCI-H460 lung,0.307 µM
same,TGI,NCI-H460 lung,12 µM
same,GI50,DU-145 prostate,0.287 µM
same,TGI,DU-145 prostate,2.66 µM
same,GI50,PC-3 prostate,0.314 µM
same,TGI,PC-3 prostate,30.4 µM
same,GI50,KM12 colon,0.219 µM
same,TGI,KM12 colon,12.8 µM
same,GI50,RPMI-8226 leukemia,0.135 µM
same,TGI,RPMI-8226 leukemia,20.6 µM
same,GI50,MOLT-4 leukemia,2.7 µM
same,TGI,MOLT-4 leukemia,> 48.2 µM
same,GI50,HT29 colon,0.334 µM
same,TGI,HT29 colon,3.38 µM
same,GI50,HS 578T breast,0.0485 µM
same,TGI,HS 578T breast,2.17 µM
same,GI50,SK-MEL-2 melanoma,0.219 µM
same,TGI,SK-MEL-2 melanoma,3.88 µM
same,GI50,CAKI-1 renal,0.402 µM
same,TGI,CAKI-1 renal,20.1 µM

# From PubChem BioAssay (NCI)
